Assay results reported in publication PMC6865014, “Discovery of Novel µ-Opioid Receptor Inverse Agonist from a Combinatorial Library of Tetrapeptides through Structure-Based Virtual Screening” (Molecules, 2019).

What was measured:
[1] = test system: MOR (µ-opioid receptor), rat brain membranes; assay: Radioligand competition binding, [^3H]DAMGO; design: species or system rat (male Wistar); conditions: for activity against MOR (in words): stated when comparing binding modes, up to 10 µM
Description: (§1) Rats were decapitated and their brains were quickly removed. The brains were used for membrane preparation according to Benyhe et al. partly used for competition binding experiments and partly were further prepared for the [^35S]GTPγS binding experiments based on Zádor et al.. Briefly, the brains were homogenized, centrifuged in ice-cold 50 mM Tris-HCl (pH 7.4) buffer and incubated at 37 °C for 30 min in a shaking water-bath. After incubation, the centrifugation was repeated as described before and the final pellet was suspended in 50 mM Tris-HCl pH 7.4 buffer containing 0.32 M sucrose and stored at −80 °C. For the [^35S]GTPγS binding experiments the final pellet of rat brain membrane homogenate was suspended in ice-cold TEM (Tris-HCl, EGTA, MgCl2) and stored at −80 °C for further use.
Total and non-specific binding was determined in the absence of ligands and the presence of 10 µM unlabeled naloxone, respectively. Following incubation, the bound and unbound radioligands were separated by rapid vacuum filtration through Whatman GF/C glass fibers and washed three times with 5 mL ice-cold 50 mM Tris-HCl (pH: 7.4). The radioactivity of the filters was detected in UltimaGold^TM MV aqueous scintillation cocktail with Packard Tricarb 2300TR liquid scintillation counter. The competition binding assays were performed in duplicate and repeated at least three times.
(§2) The specific binding of all radiolabeled compounds was calculated by the subtraction of non-specific binding from total binding and was given in percentage. The data were normalized to total specific binding, which was settled 100%, which in the case of [^35S]GTPγS also represents the basal activity of the G-protein. Experimental data were presented as mean ± S.E.M. Statistical analyses were performed with GraphPad Prism 5.0 applying one-way ANOVA with Tukey’s multiple comparison test. Significance was accepted at the p < 0.05 level.

[2] = test system: Gαi/o protein, rat brain membrane homogenates; assay: Functional [^35S]GTPγS binding (G-protein activity); format: biochemical, rat (male Wistar); conditions: 10 µM, basal activity = 100%, 30 °C, 60 min, triplicates, at least three times; for effect on G-protein basal activity / [^35S]GTPγS specific binding (in words): rat brain membranes, pH 7.4
Description: as §1
In [^35S]GTPγS binding experiments was measured the GDP→GTP exchange of the Gαi/o protein in the presence of a given ligand to measure ligand potency and the maximal efficacy of receptors G-protein. The nucleotide exchange is monitored by a radioactive, non-hydrolysable GTP analog, [^35S]GTPγS. The functional [^35S]GTPγS binding experiments were performed as previously described, with some modifications. The test compounds in 10 µM were incubated together with rat brain membrane homogenates containing ~10 μg/mL protein at 30 °C for 60 min in Tris-EGTA buffer (pH 7.4) composed of 50 mM Tris-HCl, 1 mM EGTA, 3 mM MgCl2, 100 mM NaCl, containing 20 MBq/0.05 cm^3 [^35S]GTPγS (0.05 nM). […] Total binding was measured in the absence of test compounds, while non-specific binding was determined in the presence of 10 μM unlabeled GTPγS. The bound and unbound [^35S]GTPγS were separated as described in the competition binding assays section through Whatmann GF/B glass fibers. The radioactivity of the filters was also detected as described above. [^35S]GTPγS binding experiments were performed in triplicates and repeated at least three times.
as §2

[3] = test system: δ-opioid receptors; conditions: ref [11]; cited from earlier work
Excerpt: These are potent μ-opioid agonists that exert addiction liability and numerous side effects, such as euphoria, addiction, respiratory depression, and gastrointestinal adverse reactions; therefore; circumventing these drawbacks is of extensive importance. A large amount of literature documented novel approaches to disconnecting the analgesic efficacy of μ-opioid agonists from morphine-like side effects, for example biasing the GPCRs over β-arrestin2 recruitment (TRV130, PZM21, HS665) or designing positive allosteric modulators of the MOR (BMS-986122), MOR inverse agonists/KOR antagonists, ...

[4] = test system: MOR, rat brain membrane homogenates; assay: MOR specificity of the peptide 1 effect: [^35S]GTPγS binding with co-incubated DAMGO or cyprodime; format: biochemical, rat (male Wistar); conditions: rat brain membranes
Description: as §1, with “For the [^35S]GTPγS binding experiments the final pellet of rat brain membrane homogenate was suspended in ice-cold TEM (Tris-HCl, EGTA, MgCl2) and stored at −80 °C for further use.” left out
In [^35S]GTPγS binding experiments was measured the GDP→GTP exchange of the Gαi/o protein in the presence of a given ligand to measure ligand potency and the maximal efficacy of receptors G-protein. The nucleotide exchange is monitored by a radioactive, non-hydrolysable GTP analog, [^35S]GTPγS. […] Total binding was measured in the absence of test compounds, while non-specific binding was determined in the presence of 10 μM unlabeled GTPγS. […] The radioactivity of the filters was also detected as described above. […]
(§3) The specific binding of all radiolabeled compounds was calculated by the subtraction of non-specific binding from total binding and was given in percentage. […]

[5] = test system: DOR (δ-opioid receptor), rat brain membranes; assay: Radioligand competition binding, [^3H]IleDelt II; design: species or system rat (male Wistar); conditions: 3 and 10 µM
Description: as §1
Total and non-specific binding was determined in the absence of ligands and the presence of 10 µM unlabeled naloxone, respectively. […] The radioactivity of the filters was detected in UltimaGold^TM MV aqueous scintillation cocktail with Packard Tricarb 2300TR liquid scintillation counter. […]
as §3

[6] = biological target: δ-opioid receptor (rat (endogenous in Wistar rat brain)) (UniProt P33533); assay: radioligand binding; competition against ~1 nM [^3H]IleDelt II on rat brain membranes (0.3-0.5 mg/mL protein), test ligands at 3 and 10 µM, 35 °C, 45 min; non-specific binding with 10 µM naloxone; filtration, 50 mM Tris-HCl pH 7.4 wash
[7] = biological target: µ-opioid receptor (rat (endogenous in Wistar rat brain)) (UniProt P33535)

H-Tyr-Trp-Trp-Trp-OH [peptide 2, TFA.H-Tyr-Trp-Trp-Trp-OH]
activity against MOR (in words) [1]: inactive against MOR
effect on G-protein basal activity / [^35S]GTPγS specific binding (in words) [2]: did not alter significantly the basal activity

rubiscolin-6
G protein signaling at δ-opioid receptors (in words) [3]: activate G protein signaling pathways at the δ-opioid receptors
β-arrestin recruitment (in words) [3]: minimal β-arrestin recruitment

H-Tyr-Trp-Tyr-Trp-OH [peptide 3, TFA.H-Tyr-Trp-Tyr-Trp-OH]
activity against MOR (in words) [1]: inactive against MOR
effect on G-protein basal activity / [^35S]GTPγS specific binding (in words) [2]: did not alter significantly the basal activity

Tyr-D-Ala-Gly-(NMe)Phe-Gly-ol [DAMGO, reference compound]
specific binding of [^3H]DAMGO in presence of unlabeled homologue ([1]; control, unlabeled DAMGO 3 and 10 µM, rat brain membranes, 35 °C, 45 min, 0% = non-specific binding level): 0%
effect on G-protein basal activity / [^35S]GTPγS specific binding (in words) [2]: significantly increased the specific binding of the [^35S]GTPγS compared to the basal level

H-Tyr-Lys-Arg-Cys-OH [peptide 1, TFA.H-Tyr-Lys-Arg-Cys-OH]
MOR functional activity (in words) ([4]; 10 µM): appreciable inverse agonist effect at MOR
inverse agonist effect in presence of DAMGO ([4]; peptide 1 10 µM + DAMGO 10 µM): the inverse agonist effect was reversed back to basal activity level
inhibition of [^3H]DAMGO specific binding (in words) ([1]; 3 and 10 µM, rat brain membranes): displayed inhibition of [^3H]DAMGO specific binding
selectivity MOR over DOR (in words) ([1]; [^3H]DAMGO vs [^3H]IleDelt II binding, rat brain membranes): selectivity for MOR over DOR
inhibition of [^3H]IleDelt II specific binding (in words) [5]: not against [^3H]IleDelt II
reduction of G-protein basal activity ([^35S]GTPγS specific binding) ([2]; rat brain membranes ~10 μg/mL, pH 7.4, 0.05 nM [^35S]GTPγS): ~ 20%
effect on G-protein basal activity / [^35S]GTPγS specific binding (in words) [2]: appreciable inverse agonist effect

Ile^5,6-deltorphin II (peptide)
specific binding of the radiolabeled homolog left (percent of total) [6]: 0%

B1: peptide 1 (Tyr-Lys-Arg-Cys) (peptide)
peptide: YKRC
[^35S]GTPγS specific binding (G-protein basal activity) in rat brain membranes, 10 µM peptide 1 [7]: 20%
